From US20230145793A1, “SUBSTITUTED PYRIMIDINE OR PYRIDINE AMINE DERIVATIVE, COMPOSITION THEREOF, AND MEDICAL USE THEREOF” (SHANGHAI HAIYAN PHARMACEUTICAL TECHNOLOGY CO., LTD., priority 2020, published 2023)

Experiments:
[1] = molecular target: T1, A2A receptor (Homo sapiens, UniProt P29274); assay: Test 1: inhibitory activity to the A2A receptor, cAMP HTRF in CHO-K1/ADORA2A/Gα15 cells, NECA 50 nM; type: cell-based
T1 construct: host or cells: CHO-K1 (co-expressing Gα15)
Method: (§1) Test 1: Inhibitory Activities to the A2A Receptor and the A2B Receptor CHO-K1/ADORA2A/Gα15 (GenScript, M00246) and CHO-K1/ADORA2B/Gα15 (GenScript, M00329) cells were cultured in a Ham's F-12 (Gibco, 31765092) medium containing 10% FBS, Zeocin (200 ug/mL), and Hygromycin B (100 ug/mL), or containing 10% FBS, G418 (400 ug/mL), and Hygromycin B (100 ug/mL) under culture conditions specified in the corresponding instruction. Screening procedure was as follows: 1. The cell density was adjusted with a serum-free medium to 6×10^5 cells/mL. 2. 5 uL of cell solution, 2.5 μL of NECA (Sigma, 119140-10MG), and 2.5 μL of compound solution were placed into each well of a 384-well plate (Greiner Bio-One, 784075) in sequence, the final concentration of NECA was 50 nM (CHO-K1/ADORA2A) or 10 nM (CHO-K1/ADORA2B), and the compound solution was subjected to 3-fold dilution from the final concentration of 3 uM. 3. The cells were placed still and cultured in an incubator at 37° C. for 30 min. 4. 5 μL of cAMP-d2 and 5 μL of cAMP-ab (Cisbio, 62AM4PEB) were added in sequence. 5. The 384-well plate was placed in dark at the room temperature for 1 h. 6. The plate was read (Victor X5, PerkinElmer), data were analyzed by XLfit nonlinear regression, and IC50 values of the compounds were calculated.

[2] = molecular target: T2, A2B receptor (Homo sapiens, UniProt P29275); assay: Test 1: inhibitory activity to the A2B receptor, cAMP HTRF in CHO-K1/ADORA2B/Gα15 cells, NECA 10 nM; type: cell-based
T2 construct: host or cells: CHO-K1 (co-expressing Gα15)
T2 sequence (P29275 1-332): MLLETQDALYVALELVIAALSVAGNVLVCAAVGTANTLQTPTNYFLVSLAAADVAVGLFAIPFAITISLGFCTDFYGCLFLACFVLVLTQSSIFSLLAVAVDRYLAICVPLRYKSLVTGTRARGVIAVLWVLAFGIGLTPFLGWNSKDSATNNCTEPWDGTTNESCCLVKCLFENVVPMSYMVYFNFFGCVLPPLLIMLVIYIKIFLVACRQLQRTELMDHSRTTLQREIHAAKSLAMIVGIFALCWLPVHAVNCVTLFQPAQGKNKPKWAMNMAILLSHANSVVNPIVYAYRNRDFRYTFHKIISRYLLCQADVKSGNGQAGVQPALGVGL
Method: as §1

T1 sequence (P29274 whole entry): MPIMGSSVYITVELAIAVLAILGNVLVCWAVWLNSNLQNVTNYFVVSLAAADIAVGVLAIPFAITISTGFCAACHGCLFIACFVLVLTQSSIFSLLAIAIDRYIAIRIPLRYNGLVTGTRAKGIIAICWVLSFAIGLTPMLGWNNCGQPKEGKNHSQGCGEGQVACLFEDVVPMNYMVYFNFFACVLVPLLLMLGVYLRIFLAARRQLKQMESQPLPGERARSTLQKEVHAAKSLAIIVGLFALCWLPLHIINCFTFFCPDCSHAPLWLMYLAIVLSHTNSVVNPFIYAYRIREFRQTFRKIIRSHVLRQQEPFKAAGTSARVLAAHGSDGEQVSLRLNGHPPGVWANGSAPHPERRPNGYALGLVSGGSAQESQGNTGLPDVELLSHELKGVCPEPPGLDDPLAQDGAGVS

Compound	IC50 [1]	IC50 [2]
Cc1c(C#N)cccc1-c1nc(N)nc(-c2cn(Cc3ccn(C)n3)nn2)c1F [Compound L-59]	0.063 µM	0.049 µM
Cc1c(C#N)cccc1-c1nc(N)c(Cl)c(-c2cn(Cc3cccn(C(C)C)c3=O)nn2)n1 [Compound L-8]	< 0.001 µM	0.003 µM
Cc1c(C#N)cccc1-c1nc(N)c(F)c(-c2cn(Cc3cc(C4CC4)n(C)n3)nn2)n1 [Compound L-92]	0.011 µM	0.005 µM
Cc1c(C#N)cccc1-c1nc(N)c(F)c(-c2cn(Cc3ccn(CC#N)n3)nn2)n1 [Compound L-97]	0.006 µM	0.005 µM
Cc1c(C#N)cccc1-c1nc(N)c(F)c(-c2cn(Cc3nn(C)cc3F)nn2)n1 [Compound L-80]	0.015 µM	0.013 µM
Cc1c(C#N)cccc1-c1nc(N)c(Cl)c(-c2cn(Cc3ccn(C4CC4)n3)nn2)n1 [Compound L-12]	< 0.001 µM	0.004 µM
Cc1c(C#N)cccc1-c1nc(N)c(Cl)c(-c2cn(Cc3cccn(CC(C)(C)O)c3=O)nn2)n1 [Compound L-7]	< 0.001 µM	0.007 µM
CC(C)(O)c1cccc(Cn2cc(-c3nc(-c4cccc(C#N)c4)nc4c3OCC(=O)N4)nn2)n1 [Compound L-4]	0.001 µM	0.006 µM
Cc1c(C#N)cccc1-c1nc(N)c(Cl)c(-c2cnn(Cc3ccn(C)n3)c2)n1 [Compound L-33]	0.002 µM	0.005 µM
Cc1c(C#N)cccc1-c1nc(N)c(F)c(-c2cn(Cc3ccn(CC(N)=O)n3)nn2)n1 [Compound L-29]	0.009 µM	0.008 µM
Cc1c(C#N)cccc1-c1nc(N)c(Cl)c(-c2cn(Cc3cc(C(C)(C)O)[nH]n3)nn2)n1 [Compound L-22]	0.01 µM	0.001 µM
Cc1c(C#N)cccc1-c1nc(N)c(Cl)c(-c2cn(Cc3cccn(C)c3=O)nn2)n1 [Compound L-13]	0.001 µM	0.013 µM
CCc1nccc(Cn2cc(-c3nc(-c4cccc(C#N)c4C)nc(N)c3Cl)nn2)n1 [Compound L-11]	0.001 µM	0.014 µM
Cc1c(C#N)cccc1-c1nc(N)c(Cl)c(-c2cn(Cc3cc[nH]n3)nn2)n1 [Compound L-20]	0.004 µM	0.012 µM
Cc1c(C#N)cccc1-c1nc(N)c(F)c(-c2cn(Cc3ccn(C4COC4)n3)nn2)n1 [Compound L-88]	0.002 µM	0.008 µM
Cc1c(C#N)cccc1-c1nc(N)c(Cl)c(-c2cn(Cc3cccc(S(C)(=O)=O)c3)nn2)n1 [Compound L-84]	0.004 µM	0.024 µM
Cc1c(C#N)cccc1-c1nc(N)c(F)c(-c2cn(Cc3cccn(C4CC4)c3=O)nn2)n1 [Compound L-17]	0.001 µM	0.007 µM
Cc1c(C#N)cccc1-c1nc(N)c(F)c(-c2cn(Cc3ccn(CC(C)C)n3)nn2)n1 [Compound L-36]	0.001 µM	0.01 µM
Cc1c(C#N)cccc1-c1nc(N)c(Cl)c(-c2cn(Cc3ccn(C(F)F)n3)nn2)n1 [Compound L-34]	0.002 µM	0.008 µM
Cc1c(C#N)cccc1-c1nc(N)c(F)c(-c2cn(Cc3ccn(CC4CC4)n3)nn2)n1 [Compound L-39]	0.002 µM	0.007 µM
Cc1c(C#N)cccc1-c1nc(N)c(Cl)c(-c2cn(Cc3ccn(C4COC4)n3)nn2)n1 [Compound L-93]	< 0.001 µM	0.004 µM
Cc1c(C#N)cccc1-c1nc(N)c(F)c(-c2cn(Cc3ccn(C4CCOC4)n3)nn2)n1 [Compound L-77]	0.001 µM	0.003 µM
Cc1c(C#N)cccc1-c1nc(N)c(F)c(-c2cn(Cc3ccn(C4CCN(C)C4)n3)nn2)n1 [Compound L-90]	0.005 µM	0.029 µM

The next lines start with the values.

IC50 [1]	IC50 [2]	Compound
0.002 µM	0.007 µM	Cc1c(C#N)cccc1-c1nc(N)c(F)c(-c2cn(Cc3ccn(CC(F)(F)F)n3)nn2)n1 [Compound L-37]
< 0.001 µM	0.001 µM	CCn1ccc(Cn2cc(-c3nc(-c4cccc(C#N)c4C)nc(N)c3F)nn2)n1 [Compound L-30]
0.003 µM	0.004 µM	Cc1c(C#N)cccc1-c1nc(N)c(F)c(-c2cn(Cc3cccc(C(C)(C)C#N)n3)nn2)n1 [Compound L-54]
0.001 µM	0.005 µM	Cc1c(C#N)cccc1-c1nc(N)c(F)c(-c2cn(Cc3cccc(C(C)(C)CO)n3)nn2)n1 [Compound L-63]
0.001 µM	0.003 µM	COCc1cccc(Cn2cc(-c3nc(-c4cccc(C#N)c4C)nc(N)c3F)nn2)n1 [Compound L-62]
0.001 µM	0.002 µM	Cc1c(C#N)cccc1-c1nc(N)c(F)c(-c2cn(Cc3ccn(C(C)(C)CO)n3)nn2)n1 [Compound L-49]
0.006 µM	0.023 µM	Cc1c(C#N)cccc1-c1nc(N)c(F)c(-c2cn(Cc3cccc(CN4CCN(C)CC4)n3)nn2)n1 [Compound L-71]
0.004 µM	0.006 µM	CC(C)(O)c1cccc(Cn2cc(-c3nc(-c4cccc(C#N)c4F)nc(N)c3F)nn2)n1 [Compound L-5]
0.03 µM	0.006 µM	Cc1c(C#N)cccc1-c1nc(N)c(F)c(-c2cn(Cc3ccn(C(C)(C)C)n3)nn2)n1 [Compound L-51]
0.079 µM	0.073 µM	COCc1cccc(Cn2cc(-c3nc(N)nc(-c4cccc(C#N)c4C)c3F)nn2)n1 [Compound L-60]
0.007 µM	0.024 µM	Cc1c(C#N)cccc1-c1nc(N)c(F)c(-c2cn(Cc3cccc(C(N)=O)n3)nn2)n1 [Compound L-56]
0.005 µM	0.022 µM	Cc1c(C#N)cccc1-c1nc(N)c(F)c(-c2cn(Cc3cccc(N4CCC(O)C4)n3)nn2)n1 [Compound L-65]
0.005 µM	0.02 µM	Cc1c(C#N)cccc1-c1nc(N)c(F)c(-c2cn(Cc3cccc(N4CCOCC4)n3)nn2)n1 [Compound L-69]
0.017 µM	0.014 µM	Cc1c(F)cccc1-c1nc(N)c(F)c(-c2cn(Cc3cccc(C(C)(C)O)n3)nn2)n1 [Compound L-14]
0.003 µM	0.005 µM	Cc1c(C#N)cccc1-c1nc(N)c(F)c(-c2cn(Cc3cccc(C(F)F)n3)nn2)n1 [Compound L-73]
0.011 µM	0.024 µM	Cc1c(C#N)cccc1-c1nc(N)c(F)c(-c2cn(Cc3cnn(C)n3)nn2)n1 [Compound L-47]
< 0.001 µM	0.0005 µM	Cc1c(C#N)cccc1-c1nc(N)c(F)c(-c2cn(Cc3ccn(C(C)C)n3)nn2)n1 [Compound L-75]
0.002 µM	0.004 µM	CCC(C)(O)c1cccc(Cn2cc(-c3nc(-c4cccc(C#N)c4C)nc(N)c3F)nn2)n1 [Compound L-85]
0.003 µM	0.003 µM	COCCn1ccc(Cn2cc(-c3nc(-c4cccc(C#N)c4C)nc(N)c3F)nn2)n1 [Compound L-78]
0.005 µM	0.007 µM	Cc1c(C#N)cccc1-c1nc(N)c(F)c(-c2cn(Cc3ccn(CC(C)(C)O)n3)nn2)n1 [Compound L-76]
0.007 µM	0.021 µM	Cc1c(C#N)cccc1-c1nc(N)c(F)c(-c2cn(Cc3cc(F)n(C)n3)nn2)n1 [Compound L-21]
0.002 µM	0.013 µM	Cc1c(C#N)cccc1-c1nc(N)c(F)c(-c2cn(Cc3cccc(CN4CCOCC4)n3)nn2)n1 [Compound L-70]
0.003 µM	0.011 µM	Cc1c(C#N)cccc1-c1nc(N)c(F)c(-c2cn(Cc3cccc(C4(O)CCCC4)n3)nn2)n1 [Compound L-66]
0.002 µM	0.004 µM	Cc1c(C#N)cccc1-c1nc(N)c(F)c(-c2cn(Cc3cccc(C4(O)COC4)n3)nn2)n1 [Compound L-53]
< 0.001 µM	0.001 µM	COC(C)c1cccc(Cn2cc(-c3nc(-c4cccc(C#N)c4C)nc(N)c3F)nn2)n1 [Compound L-86]
0.001 µM	0.004 µM	Cc1c(C#N)cccc1-c1nc(N)c(F)c(-c2cn(Cc3cccc(C4(O)CCC4)n3)nn2)n1 [Compound L-64]
0.004 µM	0.023 µM	Cc1c(C#N)cccc1-c1nc(N)c(F)c(-c2cn(Cc3cccc(C(C)(O)C(F)(F)F)n3)nn2)n1 [Compound L-81]
0.004 µM	0.014 µM	Cc1c(C#N)cccc1-c1nc(N)c(F)c(-c2cn(Cc3cccc(N4CCN(C)CC4)n3)nn2)n1 [Compound L-72]
0.007 µM	0.002 µM	Cc1c(C#N)cccc1-c1nc(N)c(F)c(-c2cn(Cc3cc[nH]n3)nn2)n1 [Compound L-27]
0.002 µM	0.011 µM	Cc1c(C#N)cccc1-c1nc(N)c(F)c(-c2cn(Cc3cccc(C(C)C)n3)nn2)n1 [Compound L-68]
